{"source": "patent EP0869784B1", "about": "“INHIBITION OF FATTY ACID SYNTHASE AS A MEANS TO REDUCE ADIPOCYTE MASS” (THE JOHNS HOPKINS UNIVERSITY, priority 1995, dated 1997)", "key": {"[1]": {"assay": "Half life of the drug in ascites", "design": "species or system mice", "conditions": "mouse, in vivo, ip"}, "[2]": {"assay": "Cerulenin-induced weight loss in athymic nude mice (Example 2), with necropsy from a parallel experiment", "assay_type": "in vivo", "procedure": "Athymic mice received 60 mg/kg cerulenin i.p. in 25% DMSO/saline or vehicle alone each day for 1 week. The animal weights were recorded every two days up to day 15. Average animal weight for both groups of mice is plotted against treatment day in Figure 1. Error bars represent standard error of the mean. […] In addition there was a 28% reduction of feces mass in the cerulenin-treated group consistent with deceased food intake."}, "[3]": {"system": "hepatic fatty acid synthesis", "assay": "In vivo metabolic labeling with [U-3H]-acetate, liver fatty acid synthesis", "design": "species or system mice", "procedure": "(§1) Fatty acid synthesis was measured using metabolic labeling in vivo with [U-^3H]-acetate as described in Pizer, et al., 1996, Cancer Res., 56:1189-1193.\nThus, the reversible cerulenin-induced weight loss may be the result of fatty acid synthesis inhibition as well as decreased appetite in the mice.\n(§2) HL60 cells were labeled with [U^14C]-acetate in the presence of 10 µg/ml C-75; cells were incubated in 5% CO2 at 37°C. Results are plotted in Figure 3; each time point was performed in triplicate, error bars are the standard deviation."}, "[4]": {"assay": "Cerulenin-induced weight loss in nude mice with OVCAR-3 xenografts (Example 3)", "assay_type": "in vivo, Athymic mice", "conditions": "80 mg/kg i.p. for 1 week", "procedure": "Cerulenin was administered as described in Example 2 above to mice which received 10^7 OVCAR-3 human ovarian cancer cells. Athymic mice received 0.1 ml of packed NIH-OVCAR-3 cells (approximately […]) intraperitoneally on treatment day 0. Beginning on day 1, treated mice received 80 mg/kg cerulenin i.p. in 25% DMSO/saline for 1 week, while untreated mice received vehicle alone. […] Weight loss constitutes the major toxicity observed during fatty acid synthesis inhibition therapy with cerlenin; the mice regained inception body mass within 10 days following treatment."}, "[5]": {"system": "OVCAR-3 ascites tumor fatty acid synthesis", "assay": "In vivo metabolic labeling with [U-3H]-acetate, tumor fatty acid synthesis", "design": "species or system mice", "procedure": "as §1"}, "OVCAR-3 cells": {"system": "OVCAR-3 cells", "assay": "Survival of nude mice inoculated with OVCAR-3 cells (Examples 8 and 9)", "assay_type": "in vivo", "procedure": "(§3) 20 nude mice (Harland) mice were inoculated on Day 0 with 0.1 ml packed OVCAR-3 cells. 10 mice received transisomer of C-75 (20 mg/kg) in 100 ul RPMI on days 1, 3, and 5. 10 mice received 100 ul of RPMI i.p. alone on days 1, 3, and 5. Animals were weighed on days indicated on Figure 6. Animals were sacrificed when 30% increase in body weight occurred from tumor growth.\n(§4) This indicates a dose response to the anti-tumor effect of C-75."}, "[6]": {"system": "HL60 human promyelocytic leukemia cells", "assay": "[U14C]-acetate incorporation by HL60 cells", "assay_type": "cell-based", "conditions": "10 µg/ml, time dependent, Figure 3", "procedure": "as §2"}, "[7]": {"assay": "C-75-induced weight loss in OVCAR-3 xenograft mice, pilot study (Example 6)", "assay_type": "in vivo", "conditions": "60 mg/kg on days 1, 3, and 5", "procedure": "C-75 was tested in vivo in a pilot study against the OVCAR-3 xenograft model of Example 4. Ten mice were inoculated intraperitoneally with 10^7 OVCAR-3 cells. The mice were treated on days 1, 3, and 5 with either DMSO or 60 mg/kg C-75. Results are plotted in Figure 4. C-75 treated mice experienced a 20% reduction in weight loss by day eight. Animals regained their original weight by day 15, increased their weight to nearly 110% of original body weight by day 24, and achieved original body weight by day 34."}, "[8]": {"assay": "C-75-induced weight loss in nude mice inoculated with OVCAR-3 cells (Examples 8 and 9)", "assay_type": "in vivo", "procedure": "as §3, §4"}, "FAS": {"molecular_target": "FAS (Homo sapiens, UniProt P49327)", "sequence (P49327 whole entry)": "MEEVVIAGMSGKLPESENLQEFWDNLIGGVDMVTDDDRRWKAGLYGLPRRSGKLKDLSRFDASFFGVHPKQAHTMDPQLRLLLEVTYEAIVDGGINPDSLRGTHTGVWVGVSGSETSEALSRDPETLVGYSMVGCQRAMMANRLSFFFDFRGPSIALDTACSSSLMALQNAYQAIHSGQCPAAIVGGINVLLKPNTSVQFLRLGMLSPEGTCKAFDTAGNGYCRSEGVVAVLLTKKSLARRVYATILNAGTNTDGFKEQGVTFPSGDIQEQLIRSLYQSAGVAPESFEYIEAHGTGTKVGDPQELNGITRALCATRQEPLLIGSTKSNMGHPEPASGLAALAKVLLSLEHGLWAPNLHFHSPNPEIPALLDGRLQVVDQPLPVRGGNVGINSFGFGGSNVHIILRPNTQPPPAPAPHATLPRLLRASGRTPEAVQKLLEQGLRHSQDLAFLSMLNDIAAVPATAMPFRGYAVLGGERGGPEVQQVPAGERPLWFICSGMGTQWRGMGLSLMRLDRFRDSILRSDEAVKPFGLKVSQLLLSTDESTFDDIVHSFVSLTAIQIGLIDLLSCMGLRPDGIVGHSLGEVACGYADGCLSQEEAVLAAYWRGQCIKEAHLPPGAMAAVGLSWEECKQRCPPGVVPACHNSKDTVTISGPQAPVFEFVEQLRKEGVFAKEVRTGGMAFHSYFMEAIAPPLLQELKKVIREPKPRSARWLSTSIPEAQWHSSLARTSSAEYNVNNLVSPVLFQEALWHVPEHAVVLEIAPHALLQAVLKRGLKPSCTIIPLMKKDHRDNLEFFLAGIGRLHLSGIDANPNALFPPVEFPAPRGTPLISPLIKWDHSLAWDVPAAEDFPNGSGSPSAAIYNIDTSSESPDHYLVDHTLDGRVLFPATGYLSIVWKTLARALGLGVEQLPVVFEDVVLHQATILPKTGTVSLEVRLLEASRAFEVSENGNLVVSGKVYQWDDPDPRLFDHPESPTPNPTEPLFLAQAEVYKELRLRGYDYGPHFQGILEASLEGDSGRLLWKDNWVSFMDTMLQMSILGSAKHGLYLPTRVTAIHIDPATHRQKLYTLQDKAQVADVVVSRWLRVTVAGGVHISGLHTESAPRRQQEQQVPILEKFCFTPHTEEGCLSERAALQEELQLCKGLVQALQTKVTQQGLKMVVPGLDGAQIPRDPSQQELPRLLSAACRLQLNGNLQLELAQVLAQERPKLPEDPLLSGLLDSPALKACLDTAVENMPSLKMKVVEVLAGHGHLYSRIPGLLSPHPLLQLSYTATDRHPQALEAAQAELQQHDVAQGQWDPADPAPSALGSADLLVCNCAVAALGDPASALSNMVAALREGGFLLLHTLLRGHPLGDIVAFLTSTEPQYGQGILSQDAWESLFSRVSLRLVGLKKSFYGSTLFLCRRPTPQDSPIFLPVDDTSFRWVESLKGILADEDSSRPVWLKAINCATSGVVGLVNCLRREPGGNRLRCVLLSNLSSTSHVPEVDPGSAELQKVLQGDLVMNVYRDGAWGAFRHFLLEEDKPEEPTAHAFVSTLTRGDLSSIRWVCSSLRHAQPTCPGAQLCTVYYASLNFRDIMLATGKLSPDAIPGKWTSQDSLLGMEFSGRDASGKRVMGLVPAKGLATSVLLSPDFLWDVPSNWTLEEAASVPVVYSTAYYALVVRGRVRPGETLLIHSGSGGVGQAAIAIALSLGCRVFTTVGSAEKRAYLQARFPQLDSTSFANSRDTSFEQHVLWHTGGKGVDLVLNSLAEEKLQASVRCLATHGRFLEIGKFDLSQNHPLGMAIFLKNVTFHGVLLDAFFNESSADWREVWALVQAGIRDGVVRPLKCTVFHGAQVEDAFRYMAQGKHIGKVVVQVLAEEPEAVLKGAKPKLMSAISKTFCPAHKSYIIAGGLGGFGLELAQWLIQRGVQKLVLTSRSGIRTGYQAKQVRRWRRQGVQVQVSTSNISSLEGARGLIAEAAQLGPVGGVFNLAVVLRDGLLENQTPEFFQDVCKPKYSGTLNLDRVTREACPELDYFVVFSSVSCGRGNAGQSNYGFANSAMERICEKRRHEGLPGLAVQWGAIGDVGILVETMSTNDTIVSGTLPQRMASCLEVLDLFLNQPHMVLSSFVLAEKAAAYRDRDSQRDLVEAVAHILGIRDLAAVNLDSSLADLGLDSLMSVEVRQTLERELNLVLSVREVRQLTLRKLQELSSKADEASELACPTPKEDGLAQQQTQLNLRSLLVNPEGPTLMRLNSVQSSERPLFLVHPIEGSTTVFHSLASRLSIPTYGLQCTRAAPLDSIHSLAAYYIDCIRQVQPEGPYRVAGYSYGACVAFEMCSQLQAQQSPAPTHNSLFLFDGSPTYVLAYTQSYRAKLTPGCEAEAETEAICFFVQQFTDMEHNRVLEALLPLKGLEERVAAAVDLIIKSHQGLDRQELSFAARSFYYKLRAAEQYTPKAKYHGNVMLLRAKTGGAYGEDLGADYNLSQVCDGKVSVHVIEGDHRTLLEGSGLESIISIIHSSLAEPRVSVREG", "assay": "FAS activity in hypotonic lysate of OVCAR-3 ascites cells (malonyl-CoA dependent oxidation of NADPH at 340 nm)", "assay_type": "biochemical", "source_text": "Compounds which inhibit FAS can be identified by testing the ability of a compound to inhibit fatty acid synthase activity using purified enzyme. Fatty acid synthase activity can be measured spectrophotometrically based on the oxidation of NADPH, or radioactively by measuring the incorporation of radiolabeled acetyl- or malonyl-CoA. (Dils, et al, Methods Enzymol, 35:74-83). FAS inhibitors are exemplified in U.S. patent application 08/188,425 and International patent publication WO 94/02108, both of which are incorporated herein by reference."}, "[9]": {"system": "HL60 human promyelocytic leukemia cells", "assay": "HL60 viable cell count with or without palmitate (fatty acid rescue)", "assay_type": "cell-based", "conditions": "2.5 ug/ml; palmitate 80 micromolar; viable cells by trypan blue exclusion, Figure 5", "procedure": "Suitable FAS inhibitors may be identified by a simple test exemplified in Example 7, and in U.S. patent application 08/188,425. Generally, this test uses a tumor cell line in which an FAS inhibitor, typically cerulenin, is cytotoxic. Such cell lines include SKBR-3, ZR-75-1, and preferably HL60. Suitable FAS inhibitors will inhibit growth of such cell lines, but the cells are rescued by exogenous supply of the product of the FAS enzyme (fatty acid). When cell growth is measured in the presence and absence of exogenous fatty acid (e.g., palmitate or oleate), inhibition by specific FAS inhibitors is relieved by the fatty acid.\n200,000 HL60 cells were plated in 24-well plates in 1 ml fatty acid free medium with or without palmitate (80 micromolar, complexed to fatty acid free albumin 0.2:1). Cells were treated with 2.5 ug/ml of C-75. Cells were incubated in 5% CO2 at 37°C and viable cells were counted with trypan blue exclusion at 24, […], 72, and 96 hours. Results are plotted in Figure 5; each time point was performed in triplicate, error bars are the standard deviation. […] Note that palmitate alone causes some suppression of HL60 proliferation."}, "[10]": {"conditions": "60 mg/kg i.p. each day for 1 week"}}}
{"smiles": "C/C=C/C/C=C/CCC(=O)[C@H]1O[C@H]1C(N)=O", "note": "[cerulenin]", "values": [{"measurement": "half-life", "setting": "[1]", "result": "< 15", "unit": "min"}, {"measurement": "Water intake", "setting": "[2]; [10]", "result": "not appreciable altered"}, {"measurement": "reduction of feces mass", "setting": "[2]; [10]", "result": 28, "unit": "%"}, {"measurement": "weight relative to original weight", "setting": "[2]; 60 mg/kg i.p. each day for 1 week, by day 14", "result": 96, "unit": "%"}, {"measurement": "average loss of weight", "setting": "[2]; 60 mg/kg i.p. each day for 1 week, by day eight", "result": 28, "unit": "%"}, {"measurement": "Observation of the mice (activity)", "setting": "[2]; during the period of maximal weight loss", "result": "normal activity"}, {"measurement": "Liver, microscopically", "setting": "[2]; necropsy, parallel experiment", "result": "unremarkable without necrosis or inflammation"}, {"measurement": "muscle mass, histologically", "setting": "[2]; necropsy, parallel experiment", "result": "no decrease in muscle mass was detected histologically"}, {"measurement": "Necropsy: fat deposits", "setting": "[2]; parallel experiment", "result": "markedly decreased subcutaneous fat and abdominal fat deposits"}, {"measurement": "effect on mean hepatic fatty acid synthesis", "setting": "[3]; mice with OVCAR-3 ascites tumor, intraperitoneal administration", "result": "no effect"}, {"measurement": "inhibition of fatty acid synthesis in liver", "setting": "[3]; mice without tumor, parallel experiments", "result": "~50", "unit": "%"}, {"measurement": "time to regain inception body mass following treatment", "setting": "[4]", "result": "≤ 10", "unit": "days"}, {"measurement": "urinalysis, diabetogenic effect", "setting": "[4]", "result": "failed to demonstrate any diabetogenic effect"}, {"measurement": "mean weight loss of original body mass", "setting": "[4]; during the treatment period", "result": 25, "unit": "%"}, {"measurement": "inhibition with high dose over standard dose", "setting": "[5]; high dose 6mg/mouse versus standard dose 2mg/mouse", "result": "No augmentation of inhibition"}, {"measurement": "reduction of OVCAR-3 ascites tumor fatty acid synthesis", "setting": "[5]; intraperitoneal administration as in Example 3", "result": 43, "unit": "%"}]}
{"smiles": "C=C1C(=O)O[C@@H](CCCCCCCC)[C@@H]1C(=O)O", "note": "(relative stereo) [Example C-75, trans-Tetrahydro-3-methylene-2-oxo-5-n-octyl-4-furancarboxylic acid]", "values": [{"measurement": "survival of the xenograft", "setting": "OVCAR-3 cells; 20 mg/kg on days 1, 3, and 5, p=0.001 Wilcoxon and Mantel", "result": "increased survival"}, {"measurement": "survival", "setting": "OVCAR-3 cells; only one dose, wilcoxon p=0.56, Mantel p=0.52", "result": "trend showing increased survival, but it was not statistically significant"}, {"measurement": "reduction in fatty acid synthesis (label incorporation into phospholipids)", "setting": "[6]", "result": "nearly a three-fold reduction"}, {"measurement": "day by which original body weight was achieved again after the increase", "setting": "[7]", "result": "≤ 34", "unit": "days"}, {"measurement": "day by which original weight was regained", "setting": "[7]", "result": "≤ 15", "unit": "days"}, {"measurement": "weight relative to original body weight", "setting": "[7]; by day 24", "result": "~110", "unit": "%"}, {"measurement": "body weight loss", "setting": "[7]; by day eight", "result": 20, "unit": "%"}, {"measurement": "reduction of [U-3H] acetate incorporation into fatty acids in mouse liver", "setting": "[3]; pilot in vivo metabolic labeling studies", "result": 30, "unit": "%"}, {"measurement": "weight loss in mice", "setting": "[8]; 20 mg/kg on days 1, 3, and 5, Figure 6", "result": "causes weight loss"}, {"measurement": "average maximum weight loss", "setting": "[8]; only one dose, on day 3", "result": "about 3 grams"}, {"measurement": "reduction of FAS activity compared to control lysate", "setting": "FAS; 50 µg/ml, 37 °C, 180 min", "result": 3, "unit": "fold"}, {"measurement": "FAS activity", "setting": "FAS; 50 µg/ml, 37 °C, 180 min, control 5.6", "result": 1.8, "unit": "nM NADPH oxidized/min"}, {"measurement": "effect of incubation at 4°", "setting": "FAS; incubation at 4°", "result": "abolishes the inhibitory effect"}, {"measurement": "rescue from growth inhibition by exogenous fatty acid", "setting": "[9]", "result": "palmitate rescues HL60 cells from C-75"}]}
